# pIC50: −log10 of the molar value.
# Molecular target: Recombinant human cathepsin S (CatS) (Homo sapiens, UniProt P25774)
# Experiment: Recombinant human cathepsin S (CatS) inhibition assay, fluorogenic substrate Z-Valine-Valine-Arginine-AMC;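 further: Baculovirus-expressed CatS in pH 5.0 sodium acetate buffer with DTT and NaCl, fluorescence read each minute over 20 min, inhibition derived from rate slope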
# Conditions: not given
# Chain of Recombinant human cathepsin S (CatS) (P25774 115-331): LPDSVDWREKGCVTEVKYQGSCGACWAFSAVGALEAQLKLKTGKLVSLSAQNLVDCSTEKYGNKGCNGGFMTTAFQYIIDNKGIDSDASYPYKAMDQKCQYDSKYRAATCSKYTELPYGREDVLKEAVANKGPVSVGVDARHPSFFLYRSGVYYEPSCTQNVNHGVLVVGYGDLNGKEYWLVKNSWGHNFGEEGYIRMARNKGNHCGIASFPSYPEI
row,SMILES,pIC50
1,"CS(=O)(=O)N1CCc2c(c(-c3ccc(Cl)c(C#Cc4cccc(CC#N)c4)c3)nn2CCCN2CCOCC2)C1 [Example 4, (3-{2-Chloro-5-[5-methanesulfonyl-1-(3-morpholin-4-yl-propyl)-4,5,6,7-tetrahydro-1H-pyrazolo[4,3-c]pyridin-3-yl]-phenylethynyl}-phenyl)-acetonitrile]",6.12
2,"CC(C)CC#Cc1cc(-c2nn(C[C@@H](O)CN3CCC(C4CCN(C(=O)OC(C)(C)C)CC4)CC3)c3c2CN(S(C)(=O)=O)CC3)ccc1Cl [Example 231, 1,1-Dimethylethyl 1′-[(2S)-3-{3-[4-chloro-3-(4-methylpent-1-yn-1-yl)phenyl]-5-(methylsulfonyl)-4,5,6,7-tetrahydro-1H-pyrazolo[4,3-c]pyridin-1-yl}-2-hydroxypropyl]-4,4′-bipiperidine-1-carboxylate]",5.57
3,"CS(=O)(=O)N1CCc2c(c(-c3cccc(CCc4cccc(O)c4)c3)nn2CCCN2CCOCC2)C1 [Example 296, 3-(2-{3-[5-(Methylsulfonyl)-1-(3-morpholin-4-ylpropyl)-4,5,6,7-tetrahydro-1H-pyrazolo[4,3-c]pyridin-3-yl]phenyl}ethyl)phenol]",4.81
4,"CS(=O)(=O)N1CCc2c(c(-c3ccc(Cl)c(CCc4ccccc4)c3)nn2CCCN2CCOCC2)C1 [Example 62, 3-(4-Chloro-3-phenethyl-phenyl)-5-methanesulfonyl-1-(3-morpholin-4-yl-propyl)-4,5,6,7-tetrahydro-1H-pyrazolo[4,3-c]pyridine]",5.91
5,"CS(=O)(=O)N1CCc2c(c(-c3ccc(Cl)c(CCCNS(=O)(=O)c4cccc(Cl)c4)c3)nn2CCCN2CCC(N3CCCC3=O)CC2)C1 [Example 90, 3-Chloro-N-{3-[2-chloro-5-(5-methanesulfonyl-1-{3-[4-(2-oxo-pyrrolidin-1-yl)-piperidin-1-yl]-propyl}-4,5,6,7-tetrahydro-1H-pyrazolo[4,3-c]pyridin-3-yl)-phenyl]-propyl}-benzenesulfonamide]",6.38

# Now from value to compound:
row,pIC50,SMILES
1,7.00,"CS(=O)(=O)N1CCc2c(c(-c3ccc(Cl)c(C#Cc4ccc(CNCc5ccc(Cl)cc5)cc4)c3)nn2CCCN2CCC(F)CC2)C1 [Example 358, 1-{4-[(2-Chloro-5-{1-[3-(4-fluoropiperidin-1-yl)propyl]-5-(methylsulfonyl)-4,5,6,7-tetrahydro-1H-pyrazolo[4,3-c]pyridin-3-yl}phenyl)ethynyl]phenyl}-N-[(4-chlorophenyl)methyl]methanamine]"
2,6.74,"CS(=O)(=O)N1CCc2c(c(-c3ccc(Cl)c(C#Cc4ccc(Br)cc4)c3)nn2CCCN2CCOCC2)C1 [Example 18, 3-[3-(4-Bromo-phenylethynyl)-4-chloro-phenyl]-5-methanesulfonyl-1-(3-morpholin-4-yl-propyl)-4,5,6,7-tetrahydro-1H-pyrazolo[4,3-c]pyridine]"
3,6.60,"CC(=O)Nc1ccc(C#Cc2cc(-c3nn(CCCN4CCOCC4)c4c3CN(S(C)(=O)=O)CC4)ccc2Cl)cc1 [Example 66, N-(4-{2-Chloro-5-[5-methanesulfonyl-1-(3-morpholin-4-yl-propyl)-4,5,6,7-tetrahydro-1H-pyrazolo[4,3-c]pyridin-3-yl]-phenylethynyl}-phenyl)-acetamide]"
4,6.60,"CS(=O)(=O)N1CCc2c(c(-c3ccc(Cl)c(C#Cc4ccc(O)cc4)c3)nn2CCCN2CCOCC2)C1 [Example 7, 4-{2-Chloro-5-[5-methanesulfonyl-1-(3-morpholin-4-yl-propyl)-4,5,6,7-tetrahydro-1H-pyrazolo[4,3-c]pyridin-3-yl]-phenylethynyl}-phenol]"
5,7.30,"COC(=O)C(=O)N1CCc2c(c(-c3ccc(Cl)c(C#Cc4ccc(Cl)cc4)c3)nn2CCCN2CCOCC2)C1 [Example 136, [3-[4-Chloro-3-(4-chloro-phenylethynyl)-phenyl]-1-(3-morpholin-4-yl-propyl)-1,4,6,7-tetrahydro-pyrazolo[4,3-c]pyridin-5-yl]-oxo-acetic acid methyl ester]"
6,7.52,"NC(=O)C1CCN(CCCn2nc(-c3ccc(Cl)c(C#Cc4ccc(CNCc5ccc(Cl)cc5)cc4)c3)c3c2CCN(C(N)=O)C3)CC1 [Example 461, 1-{3-[4-(Aminocarbonyl)piperidin-1-yl]propyl}-3-(4-chloro-3-{[4-({[(4-chlorophenyl)methyl]amino}methyl)phenyl]ethynyl}phenyl)-1,4,6,7-tetrahydro-5H-pyrazolo[4,3-c]pyridine-5-carboxamide]"
7,7.70,"CCNCc1cc(C#Cc2cc(-c3nn(CCCN4CCOC[C@@H]4C)c4c3CN(C(=O)C(N)=O)CC4)ccc2Cl)ccc1Cl [Example 566, 2-(3-[4-Chloro-3-({4-chloro-3-[(ethylamino)methyl]phenyl}ethynyl)phenyl]-1-{3-[(3S)-3-methylmorpholin-4-yl]propyl}-1,4,6,7-tetrahydro-5H-pyrazolo[4,3-c]pyridin-5-yl)-2-oxoacetamide]"
8,7.40,"NC(=O)N1CCc2c(c(-c3ccc(Cl)c(C#Cc4ccc(CNCc5ccc(Cl)cc5)cc4)c3)nn2CCCN2CCN(c3ccccc3)CC2)C1 [Example 430, 3-(4-Chloro-3-{[4-({[(4-chlorophenyl)methyl]amino}methyl)phenyl]ethynyl}phenyl)-1-[3-(4-phenylpiperazin-1-yl)propyl]-1,4,6,7-tetrahydro-5H-pyrazolo[4,3-c]pyridine-5-carboxamide]"
9,6.70,"C[C@H]1COCCN1CCCn1nc(-c2ccc(Cl)c(C#Cc3ccc4c(c3)CN(C3CC3)CC4)c2)c2c1CCN(S(C)(=O)=O)C2 [Example 277, 7-({2-Chloro-5-[1-{3-[(3S)-3-methylmorpholin-4-yl]propyl}-5-(methylsulfonyl)-4,5,6,7-tetrahydro-1H-pyrazolo[4,3-c]pyridin-3-yl]phenyl}ethynyl)-2-cyclopropyl-1,2,3,4-tetrahydroisoquinoline]"
10,7.70,"CS(=O)(=O)N1CCc2c(c(-c3ccc(Cl)c(C#Cc4ccc(CNCc5ccc(Cl)cc5)cc4)c3)nn2CCCN2CCN(c3cccc(O)c3)CC2)C1 [Example 409, 3-(4-{3-[3-(4-Chloro-3-{[4-({[(4-chlorophenyl)methyl]amino}methyl)phenyl]ethynyl}phenyl)-5-(methylsulfonyl)-4,5,6,7-tetrahydro-1H-pyrazolo[4,3-c]pyridin-1-yl]propyl}piperazin-1-yl)phenol]"
11,7.70,"COC(=O)CNCc1cc(C#Cc2cc(-c3nn(CCCN4CCOC[C@@H]4C)c4c3CN(C(=O)C(N)=O)CC4)ccc2Cl)ccc1Cl [Example 294, Methyl N-[(5-{[5-(5-[amino(oxo)acetyl]-1-{3-[(3S)-3-methylmorpholin-4-yl]propyl}-4,5,6,7-tetrahydro-1H-pyrazolo[4,3-c]pyridin-3-yl)-2-chlorophenyl]ethynyl}-2-chlorophenyl)methyl]glycinate]"
12,6.82,"C[C@H]1COCCN1CCCn1nc(-c2ccc(Cl)c(C#Cc3ccc4c(c3)CN(C3CC3)CC4)c2)c2c1CCN(C(N)=O)C2 [Example 282, 3-{4-Chloro-3-[(2-cyclopropyl-1,2,3,4-tetrahydroisoquinolin-7-yl)ethynyl]phenyl}-1-{3-[(3S)-3-methylmorpholin-4-yl]propyl}-1,4,6,7-tetrahydro-5H-pyrazolo[4,3-c]pyridine-5-carboxamide]"

# Same assay, conditions: CatS IC50
row,SMILES,pIC50
1,"CS(=O)(=O)N1CCc2c(c(-c3ccc(Cl)c(C#Cc4ccc(CNCc5ccc(Cl)cc5)cc4)c3)nn2CCCN2CCC(C(F)(F)F)CC2)C1 [Example 345, 1-[4-({2-Chloro-5-[5-(methylsulfonyl)-1-{3-[4-(trifluoromethyl)piperidin-1-yl]propyl}-4,5,6,7-tetrahydro-1H-pyrazolo[4,3-c]pyridin-3-yl]phenyl}ethynyl)phenyl]-N-[(4-chlorophenyl)methyl]methanamine]",6.96
2,"CS(=O)(=O)N1CCc2c(c(-c3ccc(Cl)c(C#Cc4ccc(CNCc5ccc(Cl)cc5)cc4)c3)nn2CCCN2CCNC(=O)C2)C1 [Example 397, 4-{3-[3-(4-Chloro-3-{[4-({[(4-chlorophenyl)methyl]amino}methyl)phenyl]ethynyl}phenyl)-5-(methylsulfonyl)-4,5,6,7-tetrahydro-1H-pyrazolo[4,3-c]pyridin-1-yl]propyl}piperazin-2-one]",6.29
3,"NC(=O)N1CCc2c(c(-c3ccc(Cl)c(C#Cc4ccc(CNCc5ccc(Cl)cc5)cc4)c3)nn2CCCN2CCN(C3CCC3)CC2)C1 [Example 460, 3-(4-Chloro-3-{[4-({[(4-chlorophenyl)methyl]amino}methyl)phenyl]ethynyl}phenyl)-1-[3-(4-cyclobutylpiperazin-1-yl)propyl]-1,4,6,7-tetrahydro-5H-pyrazolo[4,3-c]pyridine-5-carboxamide]",6.77
4,"C[C@H]1COCCN1CCCn1nc(-c2ccc(Cl)c(C#Cc3ccc(Cl)c(CNC4CC4)c3)c2)c2c1CCN(C(=O)C(N)=O)C2 [Example 589, 2-(3-[4-Chloro-3-({4-chloro-3-[(cyclopropylamino)methyl]phenyl}ethynyl)phenyl]-1-{3-[(3S)-3-methylmorpholin-4-yl]propyl}-1,4,6,7-tetrahydro-5H-pyrazolo[4,3-c]pyridin-5-yl)-2-oxoacetamide]",7.52
5,"COc1cccc(CNCc2ccc(C#Cc3cc(-c4nn(CCCN5CCSCC5)c5c4CN(C(N)=O)CC5)ccc3Cl)cc2)c1 [Example 534, 3-[4-Chloro-3-({4-[({[3-(methyloxy)phenyl]methyl}amino)methyl]phenyl}ethynyl)phenyl]-1-(3-thiomorpholin-4-ylpropyl)-1,4,6,7-tetrahydro-5H-pyrazolo[4,3-c]pyridine-5-carboxamide]",7.05
6,"CS(=O)(=O)N1CCc2c(c(-c3ccc(Cl)c(C#Cc4cccc(CNCCc5ccccc5)c4)c3)nn2CCCN2CCOCC2)C1 [Example 504, N-{[3-({2-Chloro-5-[5-(methylsulfonyl)-1-(3-morpholin-4-ylpropyl)-4,5,6,7-tetrahydro-1H-pyrazolo[4,3-c]pyridin-3-yl]phenyl}ethynyl)phenyl]methyl}-2-phenylethanamine]",6.55
7,"CS(=O)(=O)N1CCc2c(c(-c3ccc(Cl)c(C#Cc4ccc(Cl)c(CNCc5ccccc5)c4)c3)nn2CCCN2CCOCC2)C1 [Example 287, 1-[2-Chloro-5-({2-chloro-5-[5-(methylsulfonyl)-1-(3-morpholin-4-ylpropyl)-4,5,6,7-tetrahydro-1H-pyrazolo[4,3-c]pyridin-3-yl]phenyl}ethynyl)phenyl]-N-(phenylmethyl)methanamine]",7.30
